SMILES strings stand for the structures.

The target of test [1] is T1, recombinant human bradykinin B2 receptor (Homo sapiens, UniProt P30411).
T1 construct: expressed in transfected cells; host or cells: Chinese hamster ovary (CHO) cells, membrane homogenates
T1 sequence (P30411 1-391): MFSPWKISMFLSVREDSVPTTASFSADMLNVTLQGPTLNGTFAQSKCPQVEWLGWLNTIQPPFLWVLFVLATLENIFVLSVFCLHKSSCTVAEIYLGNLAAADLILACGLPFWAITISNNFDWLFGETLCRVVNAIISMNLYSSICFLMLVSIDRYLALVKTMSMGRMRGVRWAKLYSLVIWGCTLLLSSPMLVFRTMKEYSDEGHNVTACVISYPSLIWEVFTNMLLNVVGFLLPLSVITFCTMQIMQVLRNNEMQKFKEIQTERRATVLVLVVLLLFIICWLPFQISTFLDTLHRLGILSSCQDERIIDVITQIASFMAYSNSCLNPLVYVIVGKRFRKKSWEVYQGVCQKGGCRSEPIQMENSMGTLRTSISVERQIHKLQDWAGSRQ
Kind of test: [3H]-BK competition radioligand binding to human cloned B2 receptor (CHO cell membranes). Particulars: 0.2 nM [3H]-bradykinin, CHO membranes, 60 min 23° C.; mean ± SEM or single value; Ki from IC50 by Cheng-Prusoff; read-out: [3H]-BK Binding to Human Cloned B2 Receptor (Ki).

Test [2] deals with T2, BK receptors in human ciliary muscle cells (h-CM) (Homo sapiens, UniProt P30411).
T2 construct: h-CM cells expressing BK receptors were seeded; endogenous in cells; host or cells: human ciliary muscle (h-CM) cells
T2 sequence (P30411 1-391): T1 sequence (P30411 1-391)
Kind of test: Functional assay measuring [Ca2+]i mobilization (FLIPR) in h-CM cells. Format: cell-based. The settings on record: class symbols (in μM), read-out: CaM (EC50). The method, boiled down:
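Human ciliary muscle cells loaded 1 h at 23 °C with FLIPR calcium dye in HBSS, 20 mM HEPES, 2.5 mM probenecid, pH 7.4. EC50 by 4-parameter fit.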

Test [3] concerns primary human ciliary muscle cells (h-CM). Kind of test: Total prostaglandin (PG) release from primary h-CM cells (EIA). The format is cell-based. Particulars: Homo sapiens, 1 h, 1 hour at 37° C., class symbols (in μM). On the procedure:
BK agonist compounds of Formula 1 were evaluated for the ability to induce prostaglandin (PG) release from primary human ciliary muscle cells (h-CM). Briefly, h-CM cells were grown to confluence in FNC-coated 24-well culture plates and serum-starved (0.8% FBS) for 24 hours prior to the experiment. Cells were stimulated with a 9-pt concentration-response (0.1 nM-10 μM) of bradykinin or BK agonist for 1 hour at 37° C. with subsequent sample recovery and processing for total PG measurement. Total PG measurement was determined using a total Prostaglandin Screening EIA kit (cat#514012) purchased from Cayman Chemical (Ann Arbor, Mich.). The assay was conducted according to the package insert from the manufacturer.

`Cc1cc(OCc2ccccn2)c2cccc(OCc3c(Cl)ccc(N(C)C(=O)CNC(=O)CCc4ccc(NS(C)(=O)=O)cc4)c3Cl)c2n1` [Compound 29, N-(2-((2,4-dichloro-3-(((2-methyl-4-(pyridin-2-ylmethoxy)quinolin-8-yl)oxy)methyl)phenyl)(methyl)amino)-2-oxoethyl)-3-(4-(methylsulfonamido)phenyl)propanamide]: in test [1], the Ki came to 8 ± 3 nM. For the same molecule, the values for the EC50 in test [2] and in test [3] were 0.1 to 1 µM and > 1 µM, respectively.

Consider `COc1nc2c(OCc3c(Cl)ccc(N(C)C(=O)CNC(=O)CCc4ccc(NC(=O)CN(C)C)nc4)c3Cl)cccc2n1Cc1ccccn1` [Compound 73], for which the Ki in test [1] was found to be 184 nM. Also, the EC50 in test [2] was < 0.1 µM; in test [3] it was 0.1 to 1 µM.

Consider `CNC(=O)N1CCN(CCC(=O)NCC(=O)N(C)c2ccc(Cl)c(COc3cccc4c3nc(OC)n4Cc3ccccn3)c2Cl)CC1` [Compound 7, 4-(3-((2-((2,4-dichloro-3-(((2-methoxy-1-(pyridin-2-ylmethyl)-1H-benzo[d]imidazol-4-yl)oxy)methyl)phenyl)(methyl)amino)-2-oxoethyl)amino)-3-oxopropyl)-N-methylpiperazine-1-carboxamide], for which the Ki in test [1] was determined as 118 ± 2 nM. Besides, the EC50 in test [2] and in test [3] was < 0.1 µM throughout.

For `CNC(=O)c1ccc(CCC(=O)NCC(=O)N(C)c2ccc(Cl)c(COc3cccc4c3nc(OC)n4Cc3ccccn3)c2Cl)cn1` [Compound 64, 5-(3-((2-((2,4-dichloro-3-(((2-methoxy-1-(pyridin-2-ylmethyl)-1H-benzo[d]imidazol-4-yl)oxy)methyl)phenyl)(methyl)amino)-2-oxoethyl)amino)-3-oxopropyl)-N-methylpicolinamide], the Ki in test [1] came to 40.3 nM. Besides, the EC50 in test [2] and in test [3] was < 0.1 µM throughout.

Consider `COc1nc2c(OCc3c(Cl)ccc(N(C)C(=O)CNC(=O)CCC4CN=C(NC(C)=O)NC4)c3Cl)cccc2n1Cc1ccccn1` (stereo not drawn) [Compound 25, 3-(2-acetamido-1,4,5,6-tetrahydropyrimidin-5-yl)-N-(2-((2,4-dichloro-3-(((2-methoxy-1-(pyridin-2-ylmethyl)-1H-benzo[d]imidazol-4-yl)oxy)methyl)phenyl)(methyl)amino)-2-oxoethyl)propanamide], for which the Ki in test [1] was determined as 74 ± 6 nM. The EC50 was < 0.1 µM in test [2] and 0.1 to 1 µM in test [3].

In the case of `CNC(=O)C1CCCN(CC(=O)NCC(=O)N(C)c2ccc(Cl)c(COc3cccc4c3nc(OC)n4Cc3ccccn3)c2Cl)C1` (stereo not drawn) [Compound 35, 1-(2-(2-((2,4-dichloro-3-((2-methoxy-1-(pyridin-2-ylmethyl)-1H-benzo[d]imidazol-4-yloxy)methyl)phenyl)(methyl)amino)-2-oxoethylamino)-2-oxoethyl)-N-methylpiperidine-3-carboxamide], the Ki in test [1] worked out at 396 nM. Besides, the values for the half-maximal effective concentration (EC50) in test [2] and in test [3] were < 0.1 µM and 0.1 to 1 µM, respectively.

Take `CNC(=O)c1ncc(CCC(=O)NCC(=O)N(C)c2ccc(Cl)c(COc3cccc4c3nc(OC)n4Cc3ccccn3)c2Cl)cn1` [Compound 42, 5-(3-((2-((2,4-dichloro-3-(((2-methoxy-1-(pyridin-2-ylmethyl)-1H-benzo[d]imidazol-4-yl)oxy)methyl)phenyl)(methyl)amino)-2-oxoethyl)amino)-3-oxopropyl)-N-methylpyrimidine-2-carboxamide]: in test [1], the Ki came out at 194 nM. The EC50 in test [2] is < 0.1 µM; in test [3] it was 0.1 to 1 µM.

Take `CC(=O)Nc1ccc(CCC(=O)NCC(=O)N(C)c2ccc(Cl)c(COc3cccc4c(OCc5ccccn5)cc(C)nc34)c2Cl)cc1` [Compound 28, 3-(4-acetamidophenyl)-N-(2-((2,4-dichloro-3-(((2-methyl-4-(pyridin-2-ylmethoxy)quinolin-8-yl)oxy)methyl)phenyl)(methyl)amino)-2-oxoethyl)propanamide]: the Ki in test [1] worked out at 3 nM. Besides, the 50% effective concentration (EC50) in test [2] is 0.1 to 1 µM; in test [3] it was < 0.1 µM.

Take `CNC(=O)c1ccc(C(=O)NCC(=O)N(C)c2ccc(Cl)c(COc3cccc4c3nc(OC)n4Cc3ccccn3)c2Cl)cn1` [Compound 69]: the Ki in test [1] came to 178 nM. Further, the EC50 in test [2] and in test [3] was < 0.1 µM each time.

Consider `CNC(=O)C1CN(CC(=O)NCC(=O)N(C)c2ccc(Cl)c(COc3cccc4c3nc(OC)n4Cc3ccccn3)c2Cl)CCO1` (stereo not drawn) [Compound 44, 4-(2-((2-((2,4-dichloro-3-(((2-methoxy-1-(pyridin-2-ylmethyl)-1H-benzo[d]imidazol-4-yl)oxy)methyl)phenyl)(methyl)amino)-2-oxoethyl)amino)-2-oxoethyl)-N-methylmorpholine-2-carboxamide], for which the Ki in test [1] is 102 nM. Also, the EC50 in test [2] and in test [3] was < 0.1 µM each time.

Consider `COc1nc2c(OCc3c(Cl)ccc(N(C)C(=O)CNC(=O)CNC4CCC(NC(C)=O)CC4)c3Cl)cccc2n1Cc1ccccn1` (stereo not drawn) [Compound 10, 2-(2-((4-acetamidocyclohexyl)amino)acetamido)-N-(2,4-dichloro-3-(((2-methoxy-1-(pyridin-2-ylmethyl)-1H-benzo[d]imidazol-4-yl)oxy)methyl)phenyl)-N-methylacetamide], for which the inhibition constant (Ki) in test [1] was 76 ± 16 nM. The concentration giving a half-maximal response (EC50) in test [2] was < 0.1 µM; in test [3], > 1 µM.

In the case of `CCc1nc2c(OCc3c(Cl)ccc(N(C)C(=O)CNC(=O)CCC4CN=C(NC(C)=O)NC4)c3Cl)cccc2n1Cc1ccccn1` (stereo not drawn) [Compound 61], in test [1], the Ki amounted to 451 nM. Also, the EC50 in test [2] is < 0.1 µM; in test [3], > 1 µM.

`CNC(=O)C1=NCC(CCC(=O)NCC(=O)N(C)c2ccc(Cl)c(COc3cccc4c3nc(OC)n4Cc3ccccn3)c2Cl)CN1` (stereo not drawn) [Compound 41, 5-(3-((2-((2,4-dichloro-3-(((2-methoxy-1-(pyridin-2-ylmethyl)-1H-benzo[d]imidazol-4-yl)oxy)methyl)phenyl)(methyl)amino)-2-oxoethyl)amino)-3-oxopropyl)-N-methyl-1,4,5,6-tetrahydropyrimidine-2-carboxamide]: in test [1], the Ki was 300 nM. Besides, the results for the EC50 in test [2] and in test [3] were < 0.1 µM and 0.1 to 1 µM, respectively.

For `CNC(=O)N1CCOC(CC(=O)NCC(=O)N(C)c2ccc(Cl)c(COc3cccc4c3nc(OC)n4Cc3ccccn3)c2Cl)C1` (stereo not drawn) [Compound 79], the Ki in test [1] came out at 859 nM. For the same molecule, the EC50 in test [2] was 0.1 to 1 µM; in test [3], > 1 µM.

`CNC(=O)N1CCN(CC(F)(F)C(=O)NCC(=O)N(C)c2ccc(Cl)c(COc3cccc4c3nc(OC)n4Cc3ccccn3)c2Cl)CC1` [Compound 40, 4-(3-((2-((2,4-dichloro-3-(((2-methoxy-1-(pyridin-2-ylmethyl)-1H-benzo[d]imidazol-4-yl)oxy)methyl)phenyl)(methyl)amino)-2-oxoethyl)amino)-2,2-difluoro-3-oxopropyl)-N-methylpiperazine-1-carboxamide]: in test [1], the Ki worked out at 450 nM. The figures for the concentration for a half-maximal effect (EC50) in test [2] and in test [3] were < 0.1 µM and 0.1 to 1 µM, respectively.

`COc1nc2c(OCc3c(Cl)ccc(N(C)C(=O)CNC(=O)CCN4CCC(NC(C)=O)CC4)c3Cl)cccc2n1Cc1ccccn1` [Compound 8, 3-(4-acetamidopiperidin-1-yl)-N-(2-((2,4-dichloro-3-(((2-methoxy-1-(pyridin-2-ylmethyl)-1H-benzo[d]imidazol-4-yl)oxy)methyl)phenyl)(methyl)amino)-2-oxoethyl)propanamide]: the inhibitory constant (Ki) in test [1] amounted to 68 ± 16 nM. Besides, the EC50 in test [2] and in test [3] was < 0.1 µM each time.

As to `COc1nc2c(OCc3c(Cl)ccc(N(C)C(=O)CNC(=O)CCc4cnc(NC(C)=O)nc4)c3Cl)cccc2n1Cc1ccccn1` [Compound 77], in test [1], the Ki was found to be 229 nM. The EC50 in test [2] is < 0.1 µM; in test [3] it was 0.1 to 1 µM.

Take `COC(=O)c1ccc(CCC(=O)NCC(=O)N(C)c2ccc(Cl)c(COc3cccc4c3nc(OC)n4Cc3ccccn3)c2Cl)cc1` [Compound 37, methyl 4-(3-(2-((2,4-dichloro-3-((2-methoxy-1-(pyridin-2-ylmethyl)-1H-benzo[d]imidazol-4-yloxy)methyl)phenyl)(methyl)amino)-2-oxoethylamino)-3-oxopropyl)benzoate]: the Ki in test [1] came out at 55.2 nM. The EC50 in test [2] and in test [3] was < 0.1 µM each time.

In the case of `COc1nc2c(OCc3c(Cl)ccc(N(C)C(=O)CNC(=O)C4CCN(C5CCNC5)C4)c3Cl)cccc2n1Cc1ccccn1` (stereo not drawn) [Compound 22, N-(2-((2,4-dichloro-3-((2-methoxy-1-(pyridin-2-ylmethyl)-1H-benzo[d]imidazol-4-yloxy)methyl)phenyl)(methyl)amino)-2-oxoethyl)-1,3′-bipyrrolidine-3-carboxamide], the inhibitory constant (Ki) in test [1] is 160 ± 47 nM. In addition, the EC50 in test [2] was < 0.1 µM; in test [3], > 1 µM.

Source of the values: patent US8252793B2, “Bradykinin receptor agonists and uses thereof to treat ocular hypertension and glaucoma” (Alcon Research, Ltd., priority 2010, dated 2012).
